Assay results reported in patent US9138495B2, “Conjugates and their uses in molecular imaging” (King's College London, priority 2010, dated 2015).

What was measured:
serum transferrin = molecular target: T1, serum transferrin (Homo sapiens, UniProt P02787); experiment: Labelling of CP256 with ^68Ga in serum (PD10, ethanol precipitation, ITLC); format: in vitro ADME
T1 construct: from tissue; host or cells: human blood serum
Description: Two different radiolabelling techniques were used. In method 1, 100 μl of chelator (CP-256, 2.35 mM, 1.17 mM, 589 μM, 117 μM, 23 μM and 11.7 μM; pH 7-7.5 in PBS/bicarbonate buffer) was mixed with 300 μl of human serum. After 10-15 minutes 20 μl of 68Ga eluate was added and the solution incubated at 37° C. in a plastic tube. In the second method, 20 μl of ^68Ga solution was added to the 300 μl of human blood serum. After 15-20 minutes 100 μl of chelator (Cp-256) was added. At each time point 50 μl of the incubation solution was applied to the top of the PD-10 column and eluted the column with PBS collecting 0.5 ml fractions. Fractions were counted in a gamma counter (Perkin Elmer wizard 31480 automatic gamma counter, 10 seconds per sample). The incubated solution were also analysed by ethanol precipitation, counting the pellet and supernatant after centrifugation to determine protein bound ^68Ga, and the centrifuged supernatants were analysed by ITLC-SG with 0.1 M sodium citrate as mobile phase. In these conditions “free” ^68Ga migrates with the solvent front (Rf=1) and ^68Ga-CP256 remains at the origin (Rf=0).

human apo-transferrin = molecular target: T2, human apo-transferrin (Homo sapiens, UniProt P02787); experiment: Tracer stability in apo-transferrin using 30 kDa MWCO filters; format: in vitro ADME; conditions: tracer radiolabelled at 100 μM ligand, 37° C.
T2 construct: purchased Sigma Aldrich T5391-10MG
Description: 50 mM TRIS-HCl buffer (pH 7.5) was prepared by dilution of a 1 M stock solution. Sodium bicarbonate was added to a concentration of 25 mM. A 2.5 mg/ml (32 μM) solution of apo-transferrin was prepared in this buffer. Solutions of all tracers were radiolabelled at a concentration of 100 μM. A 10 μM CP256 solution was also prepared. See table 9 for radiolabelling conditions. A 10 μl aliquot of each radiolabelled tracer was added to 30 μl of an appropriate buffer to neutralise the pH to between 7 and 7.5. This buffer was 2 M TRIS-HCl (pH 7.5) in the case of those tracers labelled in the acetate buffer. For preparations of ^67Ga-CP256 and ^67Ga-Citrate the buffer was PBS. Details can be seen in Table 9. Apo-transferrin solution (200 μl) in a plastic microcentrifuge tube was incubated at 37° C. in a metal heating block. To this was added 20 μl of each pH-neutralised tracer. 20 μl of each tracer was also incubated in a reference buffer (containing no apo-transferrin) of 50 mM TRIS-HCl containing 25 mM sodium bicarbonate. […] The filter section of the tube was removed and counted separately from the tube in a gamma counter. Percentage binding of the radioactivity to the MWCO filter was calculated using the following equation: Counts from filter section/Counts from filter section+counts from tube section×100 The analysis was done in triplicate after 4 hours for the apo-transferrin incubations. […]

sialoadhesin = molecular target: T3, sialoadhesin (Mus musculus, UniProt Q62230); format: in vivo; conditions: group 2: ^67Ga citrate 5 min after unconjugated SER4; wild type mice, 3 h
T3 construct: Sialoadhesin is found on the surface of macrophages; endogenous in cells; host or cells: macrophages (spleen, liver) of living wild-type C57Bl/6 mice
Description: CP256-SER4 was labelled with ^67Ga to give ^67Ga-CP256-SER4. Groups of wild type mice were injected with either directly labelled Ga-CP256-SER4 (group 1), or SER4 (unconjugated) followed 5 min later by ^67Ga citrate (group 2) or CP256-SER4 followed by ^67Ga citrate.
The same experiments were also performed using sialoadhesin knockout mice. All animals were killed after 3 h and biodistribution of radioactivity determined.
^67Gallium radiolabelling was performed by addition of 45 μL ^67Ga citrate (0.6-0.75 MBq) to 90 μL (90 μg) CP256-SER4. Radiolabelling was allowed to proceed for 10 min before dilution to 350 μL with phosphate buffered saline. Injections containing 25 μg of labelled antibody were drawn up. Analysis of the radiolabelled antibody was performed by size exclusion HPLC using 0.1 M phosphate buffer containing 2 mM EDTA as the mobile phase to ensure good radiolabelling had been achieved prior to injection into animals.
Groups of wild type mice (C57Bl/6, male 8-10 weeks, n=2 to 3 per group) were injected with either directly labelled ^67Ga-CP256-SER4 (group 1), or SER4 (unconjugated) followed 5 min later by ^67Ga citrate (group 2) or CP256-SER4 followed by ^67Ga citrate. […] All animals were killed after 3 h and biodistribution of radioactivity determined by explanting tissues and weighing and counting.

T1 sequence (P02787 20-698): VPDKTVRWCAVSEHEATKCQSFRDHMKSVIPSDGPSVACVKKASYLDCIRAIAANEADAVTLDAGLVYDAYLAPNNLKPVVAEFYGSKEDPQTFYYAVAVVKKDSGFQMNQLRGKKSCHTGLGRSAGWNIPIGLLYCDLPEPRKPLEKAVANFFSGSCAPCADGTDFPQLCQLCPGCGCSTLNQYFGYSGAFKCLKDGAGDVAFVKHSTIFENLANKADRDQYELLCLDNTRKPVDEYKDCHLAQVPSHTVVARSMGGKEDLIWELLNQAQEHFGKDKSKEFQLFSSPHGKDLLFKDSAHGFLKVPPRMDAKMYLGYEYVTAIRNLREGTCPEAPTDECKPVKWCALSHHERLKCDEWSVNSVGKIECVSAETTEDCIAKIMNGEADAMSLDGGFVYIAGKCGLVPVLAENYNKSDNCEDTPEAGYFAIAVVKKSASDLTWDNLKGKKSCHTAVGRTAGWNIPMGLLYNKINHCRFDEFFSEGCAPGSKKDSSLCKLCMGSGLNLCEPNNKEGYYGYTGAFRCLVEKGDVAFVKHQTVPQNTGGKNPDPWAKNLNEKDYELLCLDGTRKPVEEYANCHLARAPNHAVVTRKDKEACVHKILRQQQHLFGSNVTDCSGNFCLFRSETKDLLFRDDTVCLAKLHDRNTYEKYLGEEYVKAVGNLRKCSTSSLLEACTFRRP
T2 sequence (P02787 20-698): as above
T3 sequence (Q62230 20-1695): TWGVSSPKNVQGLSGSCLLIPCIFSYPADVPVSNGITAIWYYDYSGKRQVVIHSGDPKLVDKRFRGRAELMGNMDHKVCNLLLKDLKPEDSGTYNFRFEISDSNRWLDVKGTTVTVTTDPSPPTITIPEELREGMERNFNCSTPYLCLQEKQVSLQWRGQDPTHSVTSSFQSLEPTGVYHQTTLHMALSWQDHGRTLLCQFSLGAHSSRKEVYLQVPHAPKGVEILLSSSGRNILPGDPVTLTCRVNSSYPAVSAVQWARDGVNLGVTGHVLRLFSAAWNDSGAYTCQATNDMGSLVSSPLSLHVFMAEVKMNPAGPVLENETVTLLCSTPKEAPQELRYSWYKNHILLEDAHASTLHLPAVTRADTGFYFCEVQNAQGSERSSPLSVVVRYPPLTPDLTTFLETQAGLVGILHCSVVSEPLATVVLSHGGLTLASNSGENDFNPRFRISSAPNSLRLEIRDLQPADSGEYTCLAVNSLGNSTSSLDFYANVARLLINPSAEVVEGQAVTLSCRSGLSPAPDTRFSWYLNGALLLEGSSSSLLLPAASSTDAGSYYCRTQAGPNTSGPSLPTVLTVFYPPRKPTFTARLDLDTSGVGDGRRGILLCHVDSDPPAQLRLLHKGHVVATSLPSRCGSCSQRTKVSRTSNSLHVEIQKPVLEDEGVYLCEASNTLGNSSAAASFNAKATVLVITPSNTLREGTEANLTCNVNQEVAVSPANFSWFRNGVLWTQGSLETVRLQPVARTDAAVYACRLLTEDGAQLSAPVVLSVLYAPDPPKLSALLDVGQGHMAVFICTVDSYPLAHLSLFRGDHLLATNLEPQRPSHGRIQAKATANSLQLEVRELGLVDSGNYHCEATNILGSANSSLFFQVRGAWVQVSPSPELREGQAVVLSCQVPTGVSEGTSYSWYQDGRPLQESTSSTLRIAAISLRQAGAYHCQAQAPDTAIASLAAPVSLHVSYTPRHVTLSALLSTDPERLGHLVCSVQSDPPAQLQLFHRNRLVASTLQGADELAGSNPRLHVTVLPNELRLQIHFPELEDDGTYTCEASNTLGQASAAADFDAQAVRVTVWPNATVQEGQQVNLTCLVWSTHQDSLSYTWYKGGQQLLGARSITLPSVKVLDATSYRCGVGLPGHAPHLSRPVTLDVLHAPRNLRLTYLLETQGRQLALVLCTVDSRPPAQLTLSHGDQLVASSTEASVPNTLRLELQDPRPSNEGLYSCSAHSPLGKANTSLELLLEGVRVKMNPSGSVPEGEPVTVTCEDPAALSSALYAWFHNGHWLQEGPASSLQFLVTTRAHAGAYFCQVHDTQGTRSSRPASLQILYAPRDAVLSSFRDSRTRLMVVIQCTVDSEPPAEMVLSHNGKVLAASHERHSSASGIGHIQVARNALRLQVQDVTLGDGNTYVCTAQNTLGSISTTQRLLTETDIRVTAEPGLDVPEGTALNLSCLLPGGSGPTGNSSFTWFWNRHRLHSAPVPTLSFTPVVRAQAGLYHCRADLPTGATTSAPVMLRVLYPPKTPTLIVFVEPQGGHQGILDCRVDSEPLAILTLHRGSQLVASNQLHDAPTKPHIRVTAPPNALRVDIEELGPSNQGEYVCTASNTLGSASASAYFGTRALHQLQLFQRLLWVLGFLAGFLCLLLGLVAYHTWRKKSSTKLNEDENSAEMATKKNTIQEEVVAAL

Structure (SMILES) | CP256 sample concentration giving a chromatogram similar to that of ^68Ga-CP256 in serum (serum transferrin; ^68Ga chloride added to mixture of CP256 and human serum) [µM] | chelation of ^68Ga in competition with serum transferrin (serum transferrin; ^68Ga chloride added to mixture of CP256 and human serum, 37° C.) | extraction of ^68Ga from ^68Ga-transferrin complex (serum transferrin; ^68Ga equilibrated first with serum, then CP256 added) | free ^68Ga (ITLC of supernatants) (serum transferrin; serum containing CP256) | protein bound ^68Ga (ethanol precipitation) (serum transferrin; serum containing CP256) | % radioactivity bound to MWCO filter, in reference buffer (human apo-transferrin; 50 mM TRIS-HCl, 25 mM bicarbonate, no apo-transferrin) [%] | % radioactivity bound to MWCO filter, apo-transferrin incubation, after 4 hours (human apo-transferrin; apo-transferrin, 4 hours) [%] | activity in circulating blood (sialoadhesin) [% ID/g]
CC(=O)NC(CCC(=O)NCc1c(O)c(=O)cc(C)n1C)(CCC(=O)NCc1c(O)c(=O)cc(C)n1C)CCC(=O)NCc1c(O)c(=O)cc(C)n1C.Cl.Cl.Cl [CP256, 4-Acetylamino-4-{2-[(3-hydroxy-1,6-dimethyl-4-oxo-1,4-dihydro-pyridin-2-ylmethyl)-carbamoyl]-ethyl}-heptanedioic acid bis-[(3-hydroxy-1,6-dimethyl-4-oxo-1,4-dihydro-pyridin-2-ylmethyl)-amide]tris hydrochloride salt] | ≥ 23 | competes effectively with serum transferrin | able to extract ^68Ga from ^68Ga-transferrin complex | no detectable free ^68Ga | no measurable protein binding |  |  | 
O=C([O-])CC(O)(CC(=O)[O-])C(=O)[O-].[67Ga+3] [^67Ga-CITRATE] |  |  |  |  |  | 1.7 ± 0.5 | 73.0 ± 4.1 | 7
